We go through 2 molecules from PMC10675732 (Viruses, 2023).

The term EC50 denotes the concentration needed to bring the measured effect to its halfway point. Read a low EC50 as an effect from little substance.

The assay deals with A36T virus (PA/A36T, A/PR/8/34 (H1N1)). Format: cell-based, influenza A virus.

`NC(=O)c1nc(F)c[nH]c1=O` [Favipiravir]: the EC50 amounted to 19.1 ± 4.87 µM and the Fold change stood at 0.86.

In turn, `O=C1c2c(O)c(=O)ccn2N([C@@H]2c3ccccc3SCc3c2ccc(F)c3F)[C@@H]2COCCN12` [baloxavir acid] gave an EC50 of 0.00259 ± 0.00133 µM and a Fold change of 1.53.
